Reference: US20250163029A1, “PYRIDONE OR PYRIMIDONE DERIVATIVE AND APPLICATION THEREOF” (Medshine Discovery Inc., priority 2022, published 2025)
Where a name gives a salt, the structure may show the parent alone.

Experiments:
plasma protein = test: Plasma protein binding rate (PPB), SD rats; type: in vitro ADME; conditions: 2 μM, 4 hours dialysis
Procedure: 597 μL of blank plasma from CD-1 mice, SD rats, beagle dogs, cynomolgus monkeys and humans were weighed, and the working solution of the assay compound or the working solution of warfarin was added, so that the final concentration of the assay compound and warfarin in the plasma sample was 2 μM. The samples were mixed thoroughly. The final concentration of DMSO as an organic phase was 0.5%; 50 μL of the assay compound and warfarin plasma samples were pipetted into a sample receiving plate, and the corresponding volume of blank plasma or buffer was immediately added, so that the final volume of each sample well was 100 μL, and the volume ratio of plasma:dialysis buffer was 1:1, and then the stop solution was added to these samples. The samples were used as the To sample for recovery and stability determination. The assay compound and warfarin plasma samples were added to the dosing end of each dialysis well, and blank dialysis buffer was added to the receiving end corresponding to the dialysis well. Then the dialysis plate was sealed with a gas permeable membrane and placed in a humidified 5% CO2 incubator, and incubated with shaking at 37° C. and 100 rpm for 4 hours. […] After protein precipitation, all samples were analyzed by LC/MS/MS, and the free rate (% Unbound) of the compound was calculated by the following formula: […]

in vivo = test: in vivo; set-up: species or system beagle dogs; conditions: beagle, dog
Procedure: (§1) Objective of assay: The druggability of compounds was evaluated by measuring their pharmacokinetic properties in different animal species.
(§2) Assay Materials: C57BL6/J strain mice, Sprague-Dawley strain rats and beagle dogs.
(§3) The pharmacokinetic characteristics of the compound after intravenous and oral administration were assayed in animals using a standard protocol. In the assay, the candidate compound was prepared into a clear solution (intravenous injection) or a homogeneous suspension (oral administration) and administrated to the animal once. Whole blood samples were collected within 24 hours, and centrifuged at 3200 g for 10 minutes. The supernatant was separated to obtain a plasma sample. The blood concentration was quantitatively analyzed by LC-MS/MS analysis method, and pharmacokinetic parameters such as peak concentration, time to peak, clearance rate, half-life, and area under the drug-time curve were calculated.

[1] = Pharmacokinetic (PK) assay in mice; type: in vivo, C57BL6/J strain mice; conditions: C57BL6/J, plasma; for AUC: mouse
Procedure: as §1, §2, §3

## Cn1cnc(Cc2cn(Cc3cc(F)c(F)cc3F)c(Nc3cc4cn(C)nc4cc3Cl)nc2=O)n1 [Compound 4 hydrochloride]
Plasma protein
  PPB_Unbound (%): 4.5%
In vivo; iv, 0.1 mg/kg
  Vd: 2.5 L/kg
  clearance: 7.2 mL/min/kg
  half-life: 6.2 h
In vivo; iv, 0.1 mg/kg, AUC
  AUC: 0.504 µM·h
In vivo; iv, 0.1 mg/kg, AUCfree
  AUC: 0.12 µM·h
In vivo; po, 0.5 mg/kg
  Cmax: 0.27 µM
  Tmax: 3 h
  bioavailability: 121%
  half-life: 9.5 h
In vivo; po, 0.5 mg/kg, AUC
  AUC: 3.1 µM·h
In vivo; po, 0.5 mg/kg, AUCfree
  AUC: 0.74 µM·h
[1]; iv, 1 mg/kg, IV, 1 mpk, read-out: AUC
  AUC: 32.8 µM·h
[1]; iv, 1 mg/kg, IV, 1 mpk, read-out: AUCfree
  AUC: 0.92 µM·h
[1]; po, 5 mg/kg, PO, 5 mpk, read-out: AUC
  AUC: 145 µM·h
[1]; po, 5 mg/kg, PO, 5 mpk, read-out: AUCfree
  AUC: 4.1 µM·h
[1]; 1 mg/kg, Mouse, IV, 1 mpk
  Vd: 0.23 L/kg
  clearance: 0.98 mL/min/kg
  half-life: 2.6 h
[1]; 5 mg/kg, Mouse, PO, 5 mpk
  Cmax: 31 µM
  Tmax: 0.75 h
  bioavailability: 88%
  half-life: 2.7 h
